Earlier results, collected in patent US7141382B1, “Methods for detection of IL-18 as an early marker for diagnosis of acute renal failure and predictor of mortality” (priority 2004, dated 2006).
Like-named read-outs stand apart in the source and are kept apart here.

Tested on: freshly isolated proximal tubules from C57BL/6 mice
Conditions: P<0.01 vs. hypoxia, n=6

CC(C)[C@H](NC(=O)c1ccc2ccccc2n1)C(=O)N[C@@H](CC(=O)O)C(=O)COc1c(F)cccc1F [OPH-001]
LDH release (25 minutes of hypoxic injury, hypoxic tubules preincubated with OPH-001 (100 μM), normoxic 11%±1%, vehicle (DMSO) 38%±6%): 22%±1%

recombinant IL-18: exogenous recombinant IL-18 added to the proximal tubule suspension
LDH release (sublethal (12 minutes) hypoxia, tubules preincubated with recombinant IL-18 (1 μg per 6 ml of tubule suspension), normoxic 10%±1%, vehicle (saline) 13%±1%): 18%±1%
